From PubChem BioAssay AID248 (DTP/NCI, 2004)
Values joined by “and” are separate entries in the source; they are usually repeats but may differ in a detail not shown here. Equal values may be shown once. Toxic doses and inconclusive results are not listed. Rule as the data show it: active = T/C of 150% or more; inactive = T/C below 125%.

Tested on: L1210 leukemia ip in BDF1 mice, survival T/C
Test: NCI In Vivo Anticancer Drug Screen. Data for tumor model L1210 Leukemia (intraperitoneal) in B6D2F1 (BDF1) mice
Conditions: endpoint: mean survival time, higher = longer survival
In short: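 Transplanted-tumor mice were given test agent; controls received vehicle only. Survival readings from the two groups were divided (treated over control).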

[1] = dose: 100.0 mg/kg/injection, schedule: Q04DX003 (ip), vehicle: Klucel (hydroxypropylcellulose) (HPC)
[2] = dose: 200.0 mg/kg/injection, schedule: Q04DX003 (ip), vehicle: Klucel (hydroxypropylcellulose) (HPC)
[3] = dose: 400.0 mg/kg/injection, schedule: Q04DX003 (ip), vehicle: Klucel (hydroxypropylcellulose) (HPC)
[4] = dose: 100.0 mg/kg/injection, schedule: Q04DX003 (ip), vehicle: saline with Tween-80
[5] = dose: 200.0 mg/kg/injection, schedule: Q04DX003 (ip), vehicle: saline with Tween-80
[6] = dose: 400.0 mg/kg/injection, schedule: Q04DX003 (ip), vehicle: saline with Tween-80
[7] = dose: 37.5 mg/kg/injection, schedule: Q01DX009 (ip), vehicle: saline
[8] = dose: 100.0 mg/kg/injection, schedule: Q01DX009 (ip), vehicle: saline with Tween-80
[9] = dose: 200.0 mg/kg/injection, schedule: Q01DX009 (ip), vehicle: saline with Tween-80
[10] = dose: 400.0 mg/kg/injection, schedule: Q01DX009 (ip), vehicle: saline with Tween-80
[11] = dose: 100.0 mg/kg/injection, schedule: Q01DX001 (ip), vehicle: saline
[12] = dose: 200.0 mg/kg/injection, schedule: Q01DX001 (ip), vehicle: saline
[13] = dose: 400.0 mg/kg/injection, schedule: Q01DX001 (ip), vehicle: saline

Measured: T/C

Cc1nc(N)[nH]c(=O)c1CCCCC#N
inactive: dose: 100.0 mg/kg/injection, schedule: Q01DX001 (ip), vehicle: Klucel (hydroxypropylcellulose) (HPC) 100 % of control | dose: 100.0 mg/kg/injection, schedule: Q01DX009 (ip), vehicle: Klucel (hydroxypropylcellulose) (HPC) 93 % of control and 106 % of control | dose: 100.0 mg/kg/injection, schedule: Q04DX002 (ip), vehicle: Klucel (hydroxypropylcellulose) (HPC) 100 % of control and 102 % of control | [1] 97 % of control | dose: 200.0 mg/kg/injection, schedule: Q01DX001 (ip), vehicle: Klucel (hydroxypropylcellulose) (HPC) 100 % of control | dose: 200.0 mg/kg/injection, schedule: Q01DX009 (ip), vehicle: Klucel (hydroxypropylcellulose) (HPC) 95 % of control and 100 % of control | dose: 200.0 mg/kg/injection, schedule: Q04DX002 (ip), vehicle: Klucel (hydroxypropylcellulose) (HPC) 102 % of control and 107 % of control | [2] 111 % of control | dose: 400.0 mg/kg/injection, schedule: Q01DX001 (ip), vehicle: Klucel (hydroxypropylcellulose) (HPC) 100 % of control | dose: 400.0 mg/kg/injection, schedule: Q01DX009 (ip), vehicle: Klucel (hydroxypropylcellulose) (HPC) 117 % of control | dose: 400.0 mg/kg/injection, schedule: Q04DX002 (ip), vehicle: Klucel (hydroxypropylcellulose) (HPC) 100 % of control and 104 % of control | [3] 102 % of control

CC(=O)N(C)c1ccccc1
inactive: dose: 100.0 mg/kg/injection, schedule: Q04DX002 (ip), vehicle: saline 99 % of control

CC(C)=CCC1=CC(=O)c2ccccc2C1=O
inactive: dose: 12.0 mg/kg/injection, schedule: Q01DX009 (ip), vehicle: water 97 % of control | dose: 25.0 mg/kg/injection, schedule: Q01DX009 (ip), vehicle: water 102 % of control | dose: 50.0 mg/kg/injection, schedule: Q01DX001 (ip), vehicle: water 96 % of control | dose: 50.0 mg/kg/injection, schedule: Q01DX009 (ip), vehicle: water 96 % of control | dose: 100.0 mg/kg/injection, schedule: Q01DX001 (ip), vehicle: water 102 % of control | dose: 100.0 mg/kg/injection, schedule: Q01DX009 (ip), vehicle: water 95 % of control | dose: 200.0 mg/kg/injection, schedule: Q01DX001 (ip), vehicle: water 105 % of control | dose: 400.0 mg/kg/injection, schedule: Q01DX001 (ip), vehicle: water 92 % of control

c1cc2c3c(c1)CCC3CCC2 (stereo unspecified)
inactive: [4] 90 % of control | [5] 95 % of control | [6] 97 % of control

CCC(=O)OC1(c2ccccc2)CCN(CCC(O)c2ccccc2)CC1C (stereo unspecified)
inactive: dose: 20.0 mg/kg/injection, schedule: Q04DX003 (ip), vehicle: Klucel (hydroxypropylcellulose) (HPC) 105 % of control | dose: 40.0 mg/kg/injection, schedule: Q04DX003 (ip), vehicle: Klucel (hydroxypropylcellulose) (HPC) 105 % of control

COc1ccc2c(ccc[n+]2C)c1
inactive: dose: 11.0 mg/kg/injection, schedule: Q01DX009 (ip), vehicle: saline 103 % of control | dose: 12.5 mg/kg/injection, schedule: Q01DX009 (ip), vehicle: saline 102 % of control | dose: 12.5 mg/kg/injection, schedule: Q04DX003 (ip), vehicle: saline with Tween-80 96 % of control | dose: 16.5 mg/kg/injection, schedule: Q01DX009 (ip), vehicle: saline 117 % of control | dose: 25.0 mg/kg/injection, schedule: Q01DX009 (ip), vehicle: saline 109 % of control and 110 % of control | dose: 25.0 mg/kg/injection, schedule: Q04DX003 (ip), vehicle: saline with Tween-80 102 % of control | dose: 33.0 mg/kg/injection, schedule: Q01DX009 (ip), vehicle: saline 113 % of control | [7] 115 % of control | dose: 50.0 mg/kg/injection, schedule: Q01DX009 (ip), vehicle: saline 115 % of control and 87 % of control | dose: 50.0 mg/kg/injection, schedule: Q04DX003 (ip), vehicle: saline with Tween-80 100 % of control | dose: 75.0 mg/kg/injection, schedule: Q01DX001 (ip), vehicle: carboxymethylcellulose (CMC) 108 % of control

CC12CCC(C/C1=N\N=C(N)N)C2(C)C (stereo unspecified)
inactive: dose: 9.37 mg/kg/injection, schedule: Q01DX009 (ip), vehicle: saline 97 % of control | dose: 18.75 mg/kg/injection, schedule: Q01DX009 (ip), vehicle: saline 96 % of control | dose: 18.75 mg/kg/injection, schedule: Q04DX003 (ip), vehicle: saline 102 % of control | [7] 102 % of control | dose: 37.5 mg/kg/injection, schedule: Q04DX003 (ip), vehicle: saline 94 % of control | dose: 75.0 mg/kg/injection, schedule: Q01DX001 (ip), vehicle: saline 105 % of control | dose: 75.0 mg/kg/injection, schedule: Q04DX003 (ip), vehicle: saline 88 % of control

COc1ccc(CNCCNCc2ccc(OC)c(OC)c2)cc1OC
inactive: [8] 97 % of control | [4] 100 % of control | [9] 102 % of control | [5] 93 % of control | [10] 106 % of control | [6] 105 % of control

CC(C)Nc1nc(NC(C)C)nc(NC(C)C)n1
inactive: [1] 92 % of control | [2] 87 % of control | [3] 90 % of control

CC(=O)Nc1nc(Cl)c2ncn(C3CC(OC(=O)c4ccc(C)cc4)C(COC(=O)c4ccc(C)cc4)O3)c2n1 (stereo unspecified)
inactive: dose: 100.0 mg/kg/injection, schedule: Q01DX005 (ip), vehicle: saline 109 % of control and 114 % of control | dose: 100.0 mg/kg/injection, schedule: Q01DX009 (ip), vehicle: saline 102 % of control | dose: 200.0 mg/kg/injection, schedule: Q01DX005 (ip), vehicle: saline 103 % of control and 104 % of control | dose: 200.0 mg/kg/injection, schedule: Q01DX009 (ip), vehicle: saline 102 % of control | dose: 400.0 mg/kg/injection, schedule: Q01DX009 (ip), vehicle: saline 107 % of control

CC1CCOC(C)(CCl)O1 (stereo unspecified)
inactive: dose: 100.0 mg/kg/injection, schedule: Q04DX002 (ip), vehicle: saline with Tween-80 98 % of control | dose: 200.0 mg/kg/injection, schedule: Q04DX002 (ip), vehicle: saline with Tween-80 95 % of control | dose: 400.0 mg/kg/injection, schedule: Q04DX002 (ip), vehicle: saline with Tween-80 98 % of control

COC(=O)C1=CC2c3ccccc3C1c1ccccc12
inactive: [8] 89 % of control | [9] 105 % of control | [10] 98 % of control

CCCCN(CCCC)C(=O)N(CCCC)CCCC
inactive: dose: 50.0 mg/kg/injection, schedule: Q01DX001 (ip), vehicle: saline with Tween-80 98 % of control | dose: 100.0 mg/kg/injection, schedule: Q01DX001 (ip), vehicle: saline with Tween-80 107 % of control | dose: 200.0 mg/kg/injection, schedule: Q01DX001 (ip), vehicle: saline with Tween-80 101 % of control

NC(=O)c1cc(Cl)nc(Cl)n1
inactive: dose: 25.0 mg/kg/injection, schedule: Q01DX Z (ip), vehicle: methylcellulose (MC) 98 % of control | dose: 50.0 mg/kg/injection, schedule: Q01DX Z (ip), vehicle: methylcellulose (MC) 96 % of control

Nc1c(Cl)ncnc1Nc1ccc(C(=O)O)cc1
inactive: dose: 50.0 mg/kg/injection, schedule: Q01DX001 (ip), vehicle: saline 96 % of control | [11] 98 % of control | [12] 96 % of control | [13] 96 % of control

COC1OC(CO)C(O)C(O)C1NC(C)=O (stereo unspecified)
inactive: [11] 106 % of control | [12] 103 % of control | [13] 104 % of control
